Reference: patent US11202792B2, “CD99 inhibitors and their uses” (GEORGETOWN UNIVERSITY, priority 2016, dated 2021)

Experiments:
[1] = target: T1, CD99-ECD (extracellular domain of human CD99) (Homo sapiens, UniProt P14209); assay: SPR binding, CD99-ECD purified from bacteria
T1 construct: the extracellular domain (Asp23-Asp122) of human CD99; made in house; host or cells: Escherichia coli BL21 (DE3)
T1 sequence (P14209 23-122): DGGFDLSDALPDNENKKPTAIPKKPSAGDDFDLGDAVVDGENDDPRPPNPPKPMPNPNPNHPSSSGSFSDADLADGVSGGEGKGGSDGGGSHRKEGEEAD
Description: The Champion™ pET104 BioEase™ Gateway® Expression System (Invitrogen (Carlsbad, Calif.)) was used to produce CD99-ECD fused with a N-terminal biotin tag, as directed by the manufacturer's instructions. Briefly, the DNA sequence encoding the extracellular domain (Asp23-Asp122) of human CD99 was amplified by PCR using pcDNA3.1 expression vector (Life Technologies (Carlsbad, Calif.)) carrying the full-length human CD99 cDNA transcript variant 1 as template. The primers were designed to include an additional C-terminal 6×His tag in the protein. The PCR product was gel purified with a QIAquick gel extraction kit (Qiagen (Hilden, Germany)) and subcloned into the pDONR 221 entry vector. The entry clone was then subjected to a recombination reaction with pET104.1-DEST destination vector, an expression vector with a N-terminal BioEase tag. The presence of an insert was confirmed by DNA sequencing.
CD99-ECD was expressed in Escherichia coli BL21 (DE3) cells. A saturated overnight culture of cells was diluted by 20-fold into fresh LB medium containing 100 μg/mL ampicillin. To induce the expression of CD99-ECD, cells were grown to OD600nm 0.5-0.7 at 37° C. and induced by the addition of isopropyl-β-D-thiogalactopyranoside to a final concentration of 1 mmol/L. The cultures were grown for an additional 3 h at 37° C. Cells were harvested by centrifugation at 8,000×g for 15 min, resuspended in 50 mmol/L sodium phosphate buffer, pH 7.4, containing 500 mmol/L NaCl, 10 mmol/L imidazole and 1 Complete EDTA-free protease inhibitor tablet/50 mL (Roche Diagnostics), and lysed by sonication. […] Protein fractions were finally eluted with a linear gradient of imidazole (10 to 1000 mmol/L) in the same buffer. The purity of the protein was assessed by SDS-PAGE followed by Coomassie staining. The eluted fractions were stored at −80° C. for further use. […]

SK-N-MC ES cells = assay: Cell viability IC50, SK-N-MC; assay type: cell-based; details: Homo sapiens
Description: (§1) The plate was installed into the RTCA system, and the electrical impedance (represented as cell index) was measured every 10 min.
To investigate the relationship between the level of CD99 expression and drug sensitivity, the endogenous expression of CD99 was determined in a panel of 9 ES and 13 non-ES cell lines. The recombinant purified CD99-ECD protein was used to generate standard curves for immunoquantification of CD99 expression by immunoblotting (FIGS. 6B and 6C).

[2] = test system: TC-71 and RD-ES cell lines; assay: Dose-dependent cytotoxicity assay in ES cell lines; assay type: cell-based, human; details: Homo sapiens; dose-response at 1, 3, 10 and 30 μmol/L in TC-71 and RD-ES
Description: as §1
The primary screen was based on a direct binding assay using surface plasmon resonance (SPR) technology with purified extracellular domain of CD99 (CD99-ECD) protein that was immobilized on a neutravidin-coated sensor chip. […] A negative control protein was used in order to eliminate non-specific binders. […] Dose-response studies were performed with 2 compounds at 1, 3, 10 and 30 μmol/L concentration in ES cell lines.

## Nc1nc(Cl)nc2c1ncn2[C@H]1C[C@H](O)[C@@H](CO)O1 [cladribine]
[1]
  Kd: 3.8 ± 2.4 µM
SK-N-MC ES cells
  IC50: 0.68 µM
[2]
  IC50: < 1 µM

## Nc1nc(Cl)nc2c1ncn2[C@@H]1O[C@H](CO)[C@@H](O)[C@@H]1F [clofarabine]
[1]
  Kd: 4.6 ± 3.2 µM
SK-N-MC ES cells
  IC50: 0.17 µM
[2]
  IC50: < 1 µM
